Reference: patent publication US20260083704A1, “LXR MODULATORS WITH BICYCLIC CORE MOIETY FOR TREATING DYSLIPIDEMIAS” (OrsoBio, Inc., priority 2022, published 2026)
pEC50: −log10 of the molar value.

Key:
LXRβ = biological target: T1, LXRβ (Homo sapiens, UniProt P55055); assay: LXR Gal4 reporter transient transfection assay (mammalian two-hybrid, HEK293), LXRβ; format: cell-based; parameters: LXRβ (amino acids 156-461); expressed in transfected cells; host or cells: HEK293; conditions: full length (FL) LXRβ, HEK293; read-out: FL-M2H Gal4β
T1 sequence (P55055 1-460): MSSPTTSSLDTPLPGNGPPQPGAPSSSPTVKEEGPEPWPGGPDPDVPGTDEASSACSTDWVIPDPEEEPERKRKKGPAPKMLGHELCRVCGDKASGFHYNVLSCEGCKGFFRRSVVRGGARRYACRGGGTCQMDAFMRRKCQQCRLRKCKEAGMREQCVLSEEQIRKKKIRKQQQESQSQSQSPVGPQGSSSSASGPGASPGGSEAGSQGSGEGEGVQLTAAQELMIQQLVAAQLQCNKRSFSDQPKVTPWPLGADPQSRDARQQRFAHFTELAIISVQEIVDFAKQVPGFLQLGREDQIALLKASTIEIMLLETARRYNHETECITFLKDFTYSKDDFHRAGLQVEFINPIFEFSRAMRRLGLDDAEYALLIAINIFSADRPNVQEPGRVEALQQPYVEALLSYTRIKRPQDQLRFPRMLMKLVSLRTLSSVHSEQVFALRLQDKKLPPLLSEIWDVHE
Experimental: LXRα and LXRβ activity status was determined via detection of interaction with coactivator and corepressor proteins in mammalian two-hybrid experiments (M2H). For this, via transient transfection the full length (FL) proteins of LXRα (amino acids 1-447; NP005684; SEQ ID NO:1) or LXRβ-(amino acids 1-461; NP009052; SEQ ID NO:2) or the ligand-binding domains (LBD) of LXRα (amino acids 155-447 SEQ ID NO:3) or LXRβ (amino acids 156-461; SEQ ID NO:4) were expressed from pCMV-AD (Stratagene) as fusions to the transcriptional activation domain of NFkB. As cofactors, domains of either the steroid receptor coactivator 1 (SRC1; amino acids 552-887; SEQ ID NO:5) or of the corepressor NCoR (amino acids 1906-2312; NP006302; SEQ ID NO:6) were expressed as fusions to the DNA binding domain of the yeast transcription factor GAL4 (from pCMV-BD; Stratagene). Interaction was monitored via activation of a coexpressed Firefly Luciferase Reporter gene under control of a promoter containing repetitive GAL4 response elements (vector pFRLuc; Stratagene). Transfection efficiency was controlled via cotransfection of constitutively active pRL-CMV Renilla reniformis luciferase reporter (Promega). HEK293 cells were grown in minimum essential medium (MEM) with 2 mM L-glutamine and Earle's balanced salt solution supplemented with 8.3% fetal bovine serum, 0.1 mM non-essential amino acids, 1 mM sodium pyruvate, at 37° C. in 5% CO2. 3.5×10^4 cells/well were plated in 96-well cell culture plates in growth medium supplemented with 8.3% fetal bovine serum for 16-20 h to ˜90% confluency. For transfection, medium was taken off and LXR and cofactor expressing plasmids as well as the reporter plasmids are added in 30 μL OPTIMEM/well including polyethylene-imine (PEI) as vehicle. Typical amounts of plasmids transfected/well: pCMV-AD-LXR (5 ng), pCMV-BD-cofactor (5 ng), pFR-Luc (100 ng), pRL-CMV (0.5 ng). Compound stocks were prepared in DMSO, prediluted in MEM to a total volume of 120 μL, and added 4 h after addition of the transfection mixture (final vehicle concentration not exceeding 0.2%). Cells were incubated for additional 16 h, lysed for 10 min in 1×Passive Lysis Buffer (Promega) and Firefly and Renilla luciferase activities were measured sequentially in the same cell extract using buffers containing D-luciferine and coelenterazine, respectively. Measurements of luminescence were done in a BMG-luminometer.
The potencies of Compound 21/3 and its analog, Compound pre-6/3, against LXRα and LXRβ were evaluated in biochemical binding assays, cellular mammalian two-hybrid (M2H) interaction assays evaluating nuclear receptor co-repressor (NCOR) recruitment, and cellular reporter assays evaluating transcriptional activity (Table 5).

[1] = biological target: T2, GST-LXRβ ligand-binding domain (Homo sapiens, UniProt P55055); assay: TR-FRETβ activity assay (NCoA3 coactivator peptide recruitment); format: biochemical; conditions: 1 μM 24(S)-25-epoxycholesterol prestimulation
T2 construct: amino acids 156-461; NP009052; made in house; host or cells: E. coli
T2 sequence (P55055 156-460 limits assumed): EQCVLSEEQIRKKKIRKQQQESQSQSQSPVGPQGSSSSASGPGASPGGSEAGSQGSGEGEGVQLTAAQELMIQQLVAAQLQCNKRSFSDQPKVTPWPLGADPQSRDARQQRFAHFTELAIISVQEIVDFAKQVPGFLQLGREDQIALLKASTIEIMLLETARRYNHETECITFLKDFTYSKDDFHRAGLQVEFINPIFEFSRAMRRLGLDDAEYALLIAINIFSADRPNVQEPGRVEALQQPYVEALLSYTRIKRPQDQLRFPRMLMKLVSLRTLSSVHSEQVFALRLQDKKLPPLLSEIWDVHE
Experimental: Recombinant GST-LXRβ ligand-binding domain (LBD; amino acids 156-461; NP009052; SEQ ID NO:4) was expressed in E. coli and purified via gluthatione-sepharose affinity chromatography. N-terminally biotinylated NCoA3 coactivator peptide (SEQ ID NO:7) was chemically synthesized (Eurogentec). Assays were done in 384 well format (final assay volume of 25 μL/well) in a Tris/HCl buffer (pH 6.8) containing KCl, bovine serum albumin, Triton-X-100 and 1 μM 24(S)-25-epoxycholesterol as LXR-prestimulating agonist. Assay buffer was provided and test articles (potential LXR inverse agonists) were titrated to yield final assay concentrations of 50 μM, 16.7 μM, 5.6 μM, 1.9 μM, 0.6 μM, 0.2 μM, 0.07 μM, 0.02 μM, 0.007 μM, 0.002 μM with one vehicle control. Finally, a detection mix was added containing anti GST-Tb cryptate (CisBio; 610SAXLB) and Streptavidin-XL665 (CisBio; 610SAXLB) as fluorescent donor and acceptor, respectively, as well as the coactivator peptide and LXRβ-LBD protein (SEQ ID NO:4). The reaction was mixed thoroughly, equilibrated for 1 h at 4° C. and vicinity of LXRβ and coactivator peptide was detected by measurement of fluorescence in a VictorX4 multiplate reader (PerkinElmer Life Science) using 340 nm as excitation and 615 and 665 nm as emission wavelengths. Assays were performed in triplicates.
240 mM KCl, 1 μg/μL BSA, 0.002% Triton-X-100, […] anti GST-Tb cryptate, 2.5 ng/μL Streptavidin-XL665, coactivator peptide (400 nM), LXRβ protein (530 μg/mL, i.e. 76 nM).

| Compound | pEC50 (LXRβ) | pEC50 [1] |
| --- | --- | --- |
| N#Cc1cccc(C#N)c1-c1c(-c2cccc(N3CC(C(=O)O)C3)c2)n(S(=O)(=O)c2ccc(C(F)F)cc2)c2ccc(F)cc12 [3/67] | 6.00 to 7.00 | 6.00 to 7.00 |
| N#Cc1cccc(C#N)c1-c1c(-c2cccc(C3CC3C(=O)O)c2)n(S(=O)(=O)c2ccc(C(F)F)cc2)c2ccc(F)cc12 (stereo not drawn) [3/68] | > 7.00 | 6.00 to 7.00 |
| O=C(O)c1ccc(-c2cccc(-c3c(-c4cccc5oncc45)c4cc(F)ccc4n3S(=O)(=O)c3ccc(C(F)F)cc3)c2)c(Cl)c1 [3/69] | 6.00 to 7.00 | 6.00 to 7.00 |
| N#Cc1cccc(C#N)c1-c1c(-c2cccc(-c3ccc(C(=O)O)cc3Cl)c2)n(S(=O)(=O)c2ccc(C(F)F)cc2)c2cnc(O)cc12 [3/70] | 6.00 to 7.00 | 6.00 to 7.00 |
| N#Cc1cccc(C#N)c1-c1c(-c2cccc(-c3c(F)cc(OCC(=O)O)cc3F)c2)n(S(=O)(=O)c2ccc(C(F)F)cc2)c2ccc(F)cc12 [3/71] | > 7.00 | > 7.00 |
| CC(O)(C(=O)O)c1cc(F)c(-c2cccc(-c3c(-c4c(C#N)cccc4C#N)c4cc(F)ccc4n3S(=O)(=O)c3ccc(C(F)F)cc3)c2)c(F)c1 (stereo not drawn) [3/72] | > 7.00 | > 7.00 |
| Cc1ccc(S(=O)(=O)n2c(-c3cccc(C4CC4C(=O)O)c3)c(-c3ccsc3C#N)c3ccncc32)cc1 (stereo not drawn) [4/1] | > 7.00 | 5.00 to 6.00 |
| Cc1ccc(S(=O)(=O)n2c(-c3cccc(C4CC4C(=O)O)c3)c(-c3ccsc3C#N)c3cccnc32)cc1 (stereo not drawn) [4/2] | 6.00 to 7.00 | 5.00 to 6.00 |
| Cc1ccc(S(=O)(=O)n2c(-c3cccc(N4CC(C(=O)O)C4)c3)c(-c3ccsc3C#N)c3sccc32)cc1 [4/3] | > 7.00 | 5.00 to 6.00 |
| Cc1ccc(S(=O)(=O)n2c(-c3cccc(-c4ccc(CO)c(S(=O)(=O)CC(=O)O)c4)c3)c(-c3ccsc3C#N)c3ccccc32)cc1 [5/1] | 6.00 to 7.00 | 6.00 to 7.00 |
| Cc1ccc(S(=O)(=O)n2c(-c3cccc(C45CC(C(=O)O)(C4)C5)c3)c(-c3ccsc3C#N)c3ccccc32)cc1 [5/2] | 6.00 to 7.00 | 6.00 to 7.00 |
| Cc1ccc(S(=O)(=O)n2c(-c3cccc(C#CC(C)(C)C(=O)O)c3)c(-c3ccsc3C#N)c3cc(F)ccc32)cc1 [5/4] | > 7.00 | 5.00 to 6.00 |
| Cc1ccc(S(=O)(=O)n2c(-c3cccc(-n4ccc(C(=O)O)cc4=O)c3)c(-c3ccsc3C#N)c3cc(F)ccc32)cc1 [5/5] | 6.00 to 7.00 | 6.00 to 7.00 |
| Cc1ccc(S(=O)(=O)n2c(-c3ccnc(-c4ccc(C(=O)O)cc4)c3)c(-c3ccsc3C#N)c3cc(F)ccc32)cc1 [5/6] | > 7.00 | 6.00 to 7.00 |
| N#Cc1sccc1-c1c(-c2cccc(N3CC(C(=O)O)C3)c2)n(S(=O)(=O)c2ccc(Cl)cc2)c2ccc(F)cc12 [5/7] | > 7.00 | 6.00 to 7.00 |
| COc1ccc(S(=O)(=O)n2c(-c3cccc(N4CC(C(=O)O)C4)c3)c(-c3ccsc3C#N)c3cc(F)ccc32)cn1 [5/8] | 6.00 to 7.00 | 6.00 to 7.00 |
| Cc1ccc(S(=O)(=O)n2c(-c3cccc(N4CC[C@@H](C(=O)O)C[C@H]4C)c3)c(-c3ccsc3C#N)c3cc(F)ccc32)cc1 [5/9] | > 7.00 | 6.00 to 7.00 |
| O=C(O)c1ccc(-c2cccc(-c3c(-c4ncccc4N4CC(O)C4)c4cc(F)ccc4n3S(=O)(=O)c3ccc(C(F)F)cc3)c2)c(Cl)c1 [5/10] | 6.00 to 7.00 | 5.00 to 6.00 |
| N#Cc1sccc1-c1c(-c2cccc(C3CC3C(=O)NO)c2)n(S(=O)(=O)c2ccc(Cl)cc2)c2ccccc12 (stereo not drawn) [6/1] | > 7.00 | 6.00 to 7.00 |
| CC(C)(C)OC(=O)CNC(=O)c1ccc(-c2cccc(-c3c(-c4c(C#N)cccc4C#N)c4cc(F)ccc4n3S(=O)(=O)c3ccc(C(F)F)cc3)c2)c(Cl)c1 [6/3] | > 7.00 | > 7.00 |
| Cc1ccc(S(=O)(=O)n2c(-c3cccc(-c4ccc(CN(C)C)cc4)c3)c(-c3ccsc3C#N)c3cc(F)ccc32)cc1 [8/1] | > 7.00 | 6.00 to 7.00 |
| O=C(O)c1ccc(-c2cccc(-c3c(-c4ccccc4C4COC4)c4cnccc4n3S(=O)(=O)c3ccc(C(F)F)cc3)c2)c(Cl)c1 [8/3] | > 7.00 | 6.00 to 7.00 |
| N#Cc1ccccc1-c1c(-c2cccc(-c3ccc(C(=O)O)cc3Cl)c2)n(S(=O)(=O)c2ccc(C(F)F)cc2)c2cccnc12 [8/7] | > 7.00 | 6.00 to 7.00 |
| N#Cc1sccc1-c1c(-c2cccc(-c3ccc(C(=O)NCCS(=O)(=O)O)cc3Cl)c2)n(S(=O)(=O)c2ccc(C(F)F)cc2)c2ccc(F)cc12 [10/3] | > 7.00 | > 7.00 |
| O=C(NCCS(=O)(=O)O)C1CC1c1cccc(-c2c(-c3c(Cl)cccc3Cl)c3cc(F)ccc3n2S(=O)(=O)c2ccc(C(F)F)cc2)c1 (stereo not drawn) [10/4] | > 7.00 | > 7.00 |
| Cc1ccc(S(=O)(=O)n2c(-c3cccc(-c4ccc(C(=O)O)cc4Cl)c3)c(-c3cccc(F)c3C#N)c3cc(F)ccc32)cc1 [11/1] | > 7.00 | > 7.00 |
| Cc1ccc(S(=O)(=O)n2c(-c3cccc(-c4ccc(C(=O)O)cc4Cl)c3)c(-c3cccc(C)c3C#N)c3cc(F)ccc32)cc1 [11/2] | > 7.00 | > 7.00 |
| COc1cccc(-c2c(-c3cccc(-c4ccc(C(=O)O)cc4Cl)c3)n(S(=O)(=O)c3ccc(C)cc3)c3ccc(F)cc23)c1C#N [11/3] | > 7.00 | > 7.00 |
| Cc1ccc(S(=O)(=O)n2c(-c3cccc(-c4ccc(C(=O)O)cc4Cl)c3)c(-c3ccc(C)cc3C#N)c3cc(F)ccc32)cc1 [11/4] | > 7.00 | 6.00 to 7.00 |
| Cc1ccc(S(=O)(=O)n2c(-c3cccc(-c4ccc(C(=O)O)cc4Cl)c3)c(-c3cc(C)ccc3C#N)c3cc(F)ccc32)cc1 [11/5] | > 7.00 | > 7.00 |
